# Laboratory results: the supplement of paper PMC10307832
# Experiments:
# Test in all cases: relative viability (nuclei count vs DMSO), 5 days (fraction); higher = more cells survive
# LOU-NH91 = system: LOU-NH91
# How it was run: (§1)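 Relative viability was taken as the ratio of nuclei in treated wells to nuclei in vehicle wells. Lung cancer cell lines in 1536-well plates received compounds by pin tool one day after seeding, either one drug alone or a fixed anchor-drug dose plus five library-drug doses (not always all listed) in √10 steps. Nuclei were counted on 4× images after 5 days of treatment, and values are medians of duplicate plates.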
# NCI-H1793 = system: NCI-H1793
# How it was run: as §1
# NCI-H1650 = system: NCI-H1650
# How it was run: as §1
# NCI-H441 = system: NCI-H441
# How it was run: as §1
# NCI-H2405 = system: NCI-H2405
# How it was run: as §1
# NCI-H1993 = system: NCI-H1993
# How it was run: as §1
# EPLC-272H = system: EPLC-272H
# How it was run: as §1
# RERF-LC-KJ = system: RERF-LC-KJ
# How it was run: as §1
# NCI-H1734 = system: NCI-H1734
# How it was run: as §1
# NCI-H520 = system: NCI-H520
# How it was run: as §1
# NCI-H2170 = system: NCI-H2170
# How it was run: as §1
# NCI-H2347 = system: NCI-H2347
# How it was run: as §1
# 201T = system: 201T
# How it was run: as §1
# NCI-H647 = system: NCI-H647
# How it was run: as §1
# NCI-H2023 = system: NCI-H2023
# How it was run: as §1
# NCI-H3122 = system: NCI-H3122
# How it was run: as §1
# NCI-H2085 = system: NCI-H2085
# How it was run: as §1
# PC-14 = system: PC-14
# How it was run: as §1
# SW 900 = system: SW 900
# How it was run: as §1
# H3255 = system: H3255
# How it was run: as §1
# HCC-44 = system: HCC-44
# How it was run: as §1
# COR-L23 = system: COR-L23
# How it was run: as §1
compound,measurement,setting,value
O=C(O)c1ccc(-c2c[nH]c3ncc(-c4ccccc4)cc23)cc1C1CCCC1 + Nc1ncn([C@H]2C[C@H](O)[C@@H](CO)O2)c(=O)n1 [Decitabine] (partner 2 µM),relative viability,LOU-NH91; first compound 0.04 µM,0.815
same,relative viability,LOU-NH91; first compound 0.1265 µM,0.859
same,relative viability,LOU-NH91; first compound 0.4 µM,0.832
same,relative viability,LOU-NH91; first compound 1.265 µM,0.718
same,relative viability,NCI-H1793; first compound 0.04 µM,0.434
same,relative viability,NCI-H1793; first compound 0.1265 µM,0.527
same,relative viability,NCI-H1793; first compound 0.4 µM,0.519
same,relative viability,NCI-H1793; first compound 1.265 µM,0.334
same,relative viability,NCI-H1650; first compound 0.04 µM,0.409
same,relative viability,NCI-H1650; first compound 0.1265 µM,0.345
same,relative viability,NCI-H1650; first compound 0.4 µM,0.404
same,relative viability,NCI-H1650; first compound 1.265 µM,0.263
same,relative viability,NCI-H441; first compound 0.04 µM,0.221
same,relative viability,NCI-H441; first compound 0.1265 µM,0.254
same,relative viability,NCI-H441; first compound 0.4 µM,0.251
same,relative viability,NCI-H441; first compound 1.265 µM,0.251
same,relative viability,NCI-H2405; first compound 0.04 µM,0.71
same,relative viability,NCI-H2405; first compound 0.1265 µM,0.762
same,relative viability,NCI-H2405; first compound 0.4 µM,0.676
same,relative viability,NCI-H2405; first compound 1.265 µM,0.515
same,relative viability,NCI-H1993; first compound 0.04 µM,0.552
same,relative viability,NCI-H1993; first compound 0.1265 µM,0.547
same,relative viability,NCI-H1993; first compound 0.4 µM,0.613
same,relative viability,NCI-H1993; first compound 1.265 µM,0.644
same,relative viability,EPLC-272H; first compound 0.04 µM,0.351
same,relative viability,EPLC-272H; first compound 0.1265 µM,0.402
same,relative viability,EPLC-272H; first compound 0.4 µM,0.388
same,relative viability,EPLC-272H; first compound 1.265 µM,0.277
same,relative viability,RERF-LC-KJ; first compound 0.04 µM,0.718
same,relative viability,RERF-LC-KJ; first compound 0.1265 µM,0.718
same,relative viability,RERF-LC-KJ; first compound 0.4 µM,0.596
same,relative viability,RERF-LC-KJ; first compound 1.265 µM,0.468
same,relative viability,NCI-H1734; first compound 0.04 µM,0.528
same,relative viability,NCI-H1734; first compound 0.1265 µM,0.499
same,relative viability,NCI-H1734; first compound 0.4 µM,0.461
same,relative viability,NCI-H1734; first compound 1.265 µM,0.437
same,relative viability,NCI-H520; first compound 0.04 µM,0.493
same,relative viability,NCI-H520; first compound 0.1265 µM,0.489
same,relative viability,NCI-H520; first compound 0.4 µM,0.5
same,relative viability,NCI-H520; first compound 1.265 µM,0.358
same,relative viability,NCI-H2170; first compound 0.04 µM,0.459
same,relative viability,NCI-H2170; first compound 0.1265 µM,0.478
same,relative viability,NCI-H2170; first compound 0.4 µM,0.437
same,relative viability,NCI-H2170; first compound 1.265 µM,0.437
same,relative viability,NCI-H2347; first compound 0.04 µM,0.609
same,relative viability,NCI-H2347; first compound 0.1265 µM,0.603
same,relative viability,NCI-H2347; first compound 0.4 µM,0.647
same,relative viability,NCI-H2347; first compound 1.265 µM,0.582
same,relative viability,201T; first compound 0.04 µM,0.862
same,relative viability,201T; first compound 0.1265 µM,0.808
same,relative viability,201T; first compound 0.4 µM,0.805
same,relative viability,201T; first compound 1.265 µM,0.811
same,relative viability,NCI-H647; first compound 0.04 µM,0.535
same,relative viability,NCI-H647; first compound 0.1265 µM,0.409
same,relative viability,NCI-H647; first compound 0.4 µM,0.388
same,relative viability,NCI-H647; first compound 1.265 µM,0.283
same,relative viability,NCI-H2023; first compound 0.04 µM,0.191
same,relative viability,NCI-H2023; first compound 0.1265 µM,0.243
same,relative viability,NCI-H2023; first compound 0.4 µM,0.216
same,relative viability,NCI-H2023; first compound 1.265 µM,0.17
same,relative viability,NCI-H3122; first compound 0.04 µM,0.423
same,relative viability,NCI-H3122; first compound 0.1265 µM,0.431
same,relative viability,NCI-H3122; first compound 0.4 µM,0.471
same,relative viability,NCI-H3122; first compound 1.265 µM,0.428
same,relative viability,NCI-H2085; first compound 0.04 µM,0.588
same,relative viability,NCI-H2085; first compound 0.1265 µM,0.548
same,relative viability,NCI-H2085; first compound 0.4 µM,0.56
same,relative viability,NCI-H2085; first compound 1.265 µM,0.366
same,relative viability,PC-14; first compound 0.04 µM,0.19
same,relative viability,PC-14; first compound 0.1265 µM,0.211
same,relative viability,PC-14; first compound 0.4 µM,0.213
same,relative viability,PC-14; first compound 1.265 µM,0.195
same,relative viability,SW 900; first compound 0.04 µM,0.437
same,relative viability,SW 900; first compound 0.1265 µM,0.456
same,relative viability,SW 900; first compound 0.4 µM,0.38
same,relative viability,SW 900; first compound 1.265 µM,0.344
same,relative viability,H3255; first compound 0.04 µM,0.64
same,relative viability,H3255; first compound 0.1265 µM,0.477
same,relative viability,H3255; first compound 0.4 µM,0.513
same,relative viability,H3255; first compound 1.265 µM,0.495
same,relative viability,HCC-44; first compound 0.04 µM,0.973
same,relative viability,HCC-44; first compound 0.1265 µM,0.95
same,relative viability,HCC-44; first compound 0.4 µM,0.962
same,relative viability,HCC-44; first compound 1.265 µM,0.864
same,relative viability,COR-L23; first compound 0.04 µM,0.446
same,relative viability,COR-L23; first compound 0.1265 µM,0.414
same,relative viability,COR-L23; first compound 0.4 µM,0.365
same,relative viability,COR-L23; first compound 1.265 µM,0.327
